This note sets out measurements from ChEMBL document CHEMBL1201862, “PubChem BioAssay data set” (2004).

The structures appear in SMILES notation.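 Each compound was tested at five concentrations against cells in 96-well plates for 48 hours. Here, GI50 denotes the concentration required for 50% inhibition of growth.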 Active and inactive are the calls of the source. Rule as the data show it: active = GI50 up to about 1.1 µM and inactive = higher. A value given as a limit tells only on which side of the number the result lay.

Among the test systems are NCI/ADR-RES; NCI-H226; HOP-92; U-251; UO-31; HOP-62; SK-MEL-28; NCI-H522; UACC-257; SN12C; SF-539; MDA-MB-231; A549; SK-MEL-5; NCI-H23; MOLT-4; COLO 205; 786-0; RXF 393; SNB-75.
Common to all, as to assay: DTP human tumour cell line panel, 48 h

The GI50 is the concentration that inhibits growth by half.

On to `O=C1/C(=C/c2ccccc2)CCCC1CN1CCCCC1` (stereo not given), for which the GI50 was 3.24 µM (inactive) in the assay with NCI/ADR-RES; 3.45 µM (inactive) with NCI-H226; 2.24 µM (inactive) in the assay with HOP-92; 13.3 µM (inactive) with U-251; 1.88 µM (inactive) with UO-31; 20.8 µM (inactive) in the assay with HOP-62. The GI50 in the assay with SK-MEL-28 was 1.97 µM (inactive); with NCI-H522, 0.242 µM (active); with UACC-257 it was 6.07 µM (inactive); in the assay with SN12C it was 5.9 µM (inactive); in the assay with SF-539 it was 3.12 µM (inactive); in the assay with MDA-MB-231 it was 2 µM (inactive). Further, the GI50 was 17.5 µM (inactive) with A549; 4.31 µM (inactive) in the assay with SK-MEL-5; 4.97 µM (inactive) in the assay with NCI-H23; 1.43 µM (inactive) in the assay on MOLT-4; 3 µM (inactive) in the assay on COLO 205; 1.87 µM (inactive) in the assay with 786-0. Moreover, the GI50 in the assay with RXF 393 was 1.83 µM (inactive); in the assay with SNB-75, 7.91 µM (inactive).
For `CCc1cc2c(c3c1CCCC3=O)CC1(C2)Cc2cc(CC)c3c(c2C1)C(=O)CCC3`, the GI50 in the assay with NCI/ADR-RES was > 100 µM (inactive); with NCI-H226, > 100 µM (inactive); with HOP-92 it was 57.9 µM (inactive); with U-251 it was 87.5 µM (inactive); in the assay with UO-31, > 100 µM (inactive); in the assay on HOP-62, > 100 µM (inactive). Also, the GI50 in the assay with SK-MEL-28 is > 100 µM (inactive); with NCI-H522, 62.8 µM (inactive); in the assay with UACC-257, 57.4 µM (inactive); in the assay on SN12C, > 100 µM (inactive); with SF-539 it was > 100 µM (inactive); in the assay with MDA-MB-231, 36.5 µM (inactive). For the same compound, the GI50 in the assay with A549 is > 100 µM (inactive); with SK-MEL-5 it was 54.3 µM (inactive); in the assay on NCI-H23, > 100 µM (inactive); in the assay on MOLT-4, 35.2 µM (inactive); with COLO 205, > 100 µM (inactive); in the assay on 786-0 it was > 100 µM (inactive). The GI50 in the assay on RXF 393 was > 100 µM (inactive); in the assay with SNB-75, 30.5 µM (inactive).
With `COc1ccc(OC)c(CSc2ccc(OC)c(OC)c2)c1`, the GI50 in the assay on NCI/ADR-RES was > 70.8 µM (inactive); in the assay with NCI-H226 it was > 71.4 µM (inactive); with HOP-92, > 52.2 µM (inactive); with U-251, > 94.2 µM (inactive); with UO-31, 55.3 µM (inactive); in the assay on HOP-62, > 100 µM (inactive). Moreover, the GI50 was > 100 µM (inactive) in the assay on SK-MEL-28; > 90.2 µM (inactive) in the assay on NCI-H522; > 83.4 µM (inactive) in the assay on UACC-257; > 100 µM (inactive) in the assay on SN12C; > 100 µM (inactive) in the assay with SF-539; > 93.5 µM (inactive) with MDA-MB-231. The GI50 with A549 was > 79.4 µM (inactive); with SK-MEL-5, 45.4 µM (inactive); in the assay with NCI-H23, 82 µM (inactive); with MOLT-4, 43.2 µM (inactive); in the assay with COLO 205, > 100 µM (inactive); in the assay with 786-0 it was > 100 µM (inactive). Also, the GI50 in the assay with RXF 393 was > 100 µM (inactive); with SNB-75, 57.1 µM (inactive).
On to `COC(=O)NC(Nc1ccc(Cl)cc1Cl)(C(F)(F)F)C(F)(F)F`, for which the GI50 in the assay with NCI/ADR-RES was 86.5 µM (inactive); in the assay with NCI-H226, > 100 µM (inactive); with HOP-92 it was 73.3 µM (inactive); in the assay on U-251 it was 54.1 µM (inactive); in the assay on UO-31, 18 µM (inactive); with HOP-62, > 100 µM (inactive). The GI50 with SK-MEL-28 was > 100 µM (inactive); with NCI-H522, 37.1 µM (inactive); with UACC-257, > 100 µM (inactive); with SN12C it was 80.4 µM (inactive); in the assay with SF-539 it was 49 µM (inactive); with MDA-MB-231, > 100 µM (inactive). The GI50 is 38.4 µM (inactive) in the assay on A549; 26.7 µM (inactive) with SK-MEL-5; > 100 µM (inactive) in the assay on NCI-H23; 37.8 µM (inactive) in the assay with MOLT-4; 28.2 µM (inactive) in the assay with COLO 205; > 100 µM (inactive) with 786-0. In addition, the GI50 in the assay with RXF 393 and with SNB-75 was > 100 µM (inactive) each time.
